Measurements taken from patent publication US7452678B2, “Identification of biomarkers for liver toxicity” (Bristol-Myers Squibb Company, priority 2003, dated 2008).

Experiments:
[1] = system: HHA Cells; experiment: Cytotoxicity in the hepatocyte culture system, inhibition of ATP synthesis (CellTiter-Glo bioluminescence); type: cell-based, human
From the text: (§1) These immortalized cells are reported to be similar to quiescent normal human hepatocytes. […] The THLE-5 cell line (also named THLE-5B) was previously deposited under the terms and conditions of the Budapest Treaty at the American Type Culture Collection on Apr.
(§2) The cell line THLE-5B-3A4, which expresses the 3A4 isoform of cytochrome P450, was derived by transfection of THLE-5B-c15 with a CMV expression vector comprising a human cDNA coding for the specific P450 isoenzyme and a selection marker, using methods known in the art.
(§3) For the purposes of this study, the non-hepatotoxic drugs were administered at 50 μM (Table 1).

[2] = system: THLE-5B-3A4
Experimental: When the cells reached confluence, the medium was removed by aspiration, and replaced with 30 ml of serum and transferrin free PMRF-4 medium (SFM) containing either vehicle (0.5% DMSO) or compound in 0.5% DMSO.
Cells were incubated for 20 hr at 37° C. Conditioned media (i.e., media incubated with cells) was collected by decanting, then syringe-filtered through 0.22 μm membrane, and stored at −70° C. before preparation for LC/LC/MS/MS analysis.
Following electrophoresis, the proteins were transferred to PVDF membrane at 30 V for 1 hr. […] Following incubation with an anti-rabbit secondary antibody (1:5000 dilution, Sigma), bands were visualized using an enhanced chemiluminescent detection system (ECL+, Amersham, Piscataway, N.J.) and imaged using a cooled charge-coupled device camera (Fluor S-Max, Bio-Rad, Hercules, Calif.). The signals from the blots were quantified using Quantity One software (Bio-Rad).
Conditioned media samples used to identify the proteins were assayed by blotting to determine presence and relative concentrations of the proteins as a function of each treatment. This was done to verify the accuracy of the mass spectral data (Table 3) and to increase the precision of the quantitative measurements.

[3] = system: THLE-5B-3A4; experiment: LC/LC/MS/MS peptide hits of biomarker polypeptides in conditioned media of treated hepatocytes; type: cell-based, human; conditions: 20 hr, concentrations of Table 1
Experimental: Cells were incubated for 20 hr at 37° C.
Following a single thaw in a 1 L cylinder of water at room temperature, the filtered media were concentrated by centrifugal filtration (10 kDa, Pall Gelman Laboratory, Ann Arbor, Mich.). […] After reduction, 500 nmol of iodoacetamide (Sigma) was added to each sample and incubated in the dark at room temperature for an additional 30 min. Finally, samples were diluted four-fold and 20 μg of TPCK-treated porcine trypsin (Promega, Madison, Wis.) was added to each sample prior to incubation for 18 hr at 37° C. Samples were subsequently desalted using separate C18 spin columns (Nest Group, Southboro, Mass.) before injection onto the LC/LC/MS/MS system.
The capillary column was first packed with 10 cm of C18 reversed-phase material (SelfPack Poros 10 R2, ABI, Framingham, Mass.), and this was followed by 5 cm of strong cation exchange material (Poros 20 HS SCX, ABI). A load of 200 μg of digested material, based on the total protein assay, was used for each analysis.
Each analysis included a salt step, followed by buffer wash, then a reversed phase run of increasing organic concentration. Following the completion of each successive reversed phase gradient, the salt concentration was increased, and the cycle was begun again (FIG. 2).
This separation included a 100 min analysis with a gradient of 0-40% Buffer A to B for 0 to 75 min, 40-100% B for 75-85 min, 100-0% B for 85-90 min, and finally a re-equilibration hold at 0% B for 90-100 min. The aforementioned gradients were delivered by a binary pump (1100, Agilent, Wilmington, Del.), which was split 1:200 prior to connection to the capillary column.
The mass spectrometer's capillary temp was set to 200° C., and the spray voltage was set to 2 kV. In survey scan mode, two microscans were used to acquire 9e^7 counts, with a maximum acquisition time of 1000 msec. In MS/MS mode, 3 microscans were used to acquire 2e^7 counts, with a maximum acquisition time of 300 msec. The instrument was set to trigger data dependent fragmentation of the three most intense ions detected during the MS survey scan.
The output file from the […] program was then downloaded to desktop spreadsheet programs for further statistical analysis (Excel, Microsoft, Redmond, Wash.).

[4] = Cytotoxicity in the hepatocyte culture system, inhibition of ATP synthesis (CellTiter-Glo bioluminescence); type: cell-based, human; conditions: human; hepatotoxic drugs were dosed at their IC50 for cytotoxicity, inhibition of ATP synthesis as endpoint; read-out: Concentration (IC50 value for cytotoxicity)
From the text: as §1, §2, §3

[5] = Table 2, panel of 20 treatments
[6] = Table 1, 8 treatments of the discovery panel

**Q.** Which “Toxicity in HHA Cells” value [1, 5] does the source give for CC/C(=C(\c1ccccc1)c1ccc(OCCN(C)C)cc1)c1ccccc1 [Tamoxifen] here?
**A.** Toxic

**Q.** Which results are given for Cc1oc(-c2ccccc2)nc1CCOc1ccc(C[C@H](Nc2ccccc2C(=O)c2ccccc2)C(=O)O)cc1 [Farglitazar]?
**A.** change in levels of BMS-PTX-265 [2]: statistically significant (p<0.05) increase; peptide hits BMS-PTX-062 [3]: 29; peptide hits BMS-PTX-120 [3]: 35; peptide hits BMS-PTX-225 [3]: 10; peptide hits BMS-PTX-254 [3]: 14; peptide hits BMS-PTX-260 [3]: 21; peptide hits BMS-PTX-265 [3]: 49; peptide hits BMS-PTX-447 [3]: 54; peptide hits BMS-PTX-459 [3]: 24; peptide hits BMS-PTX-607 [3]: 13; peptide hits BMS-PTX-749 [3]: 87; peptide hits BMS-PTX-808 [3]: 10; peptide hits BMS-PTX-837 [3]: 15; peptide hits BMS-PTX-860 [3]: 15; peptide hits BMS-PTX-(29)147 [3]: 128; peptide hits BMS-PTX-(39)147 [3]: 24; IC50 [4]: 8.61 µM; Toxicity in HHA Cells [1, 6]: Toxic; Toxicity in HHA Cells [1, 5]: Toxic

**Q.** For CN(CCOc1ccc(CC2SC(=O)NC2=O)cc1)c1ccccn1 (stereo not shown) [Rosiglitazone], which “Toxicity in HHA Cells” value [1, 6] is on record?
**A.** Non-Toxic

**Q.** What about the “Toxicity in HHA Cells” value [1, 5] of the same compound?
**A.** Non-Toxic

**Q.** With O=C1CN(/N=C/c2ccc(-c3ccc([N+](=O)[O-])cc3)o2)C(O)=N1 [Dantrolene] as the compound, how does the “Toxicity in HHA Cells” value [1, 5] read?
**A.** Toxic

**Q.** Which results are given for CCO[C@@H](Cc1ccc(OCCc2ccc(OS(C)(=O)=O)cc2)cc1)C(=O)O [Tesaglitazar]?
**A.** peptide hits BMS-PTX-062 [3]: 1; peptide hits BMS-PTX-120 [3]: 3; peptide hits BMS-PTX-225 [3]: 0; peptide hits BMS-PTX-254 [3]: 1; peptide hits BMS-PTX-260 [3]: 0; peptide hits BMS-PTX-265 [3]: 8; peptide hits BMS-PTX-447 [3]: 6; peptide hits BMS-PTX-459 [3]: 8; peptide hits BMS-PTX-607 [3]: 0; peptide hits BMS-PTX-749 [3]: 6; peptide hits BMS-PTX-808 [3]: 1; peptide hits BMS-PTX-837 [3]: 8; peptide hits BMS-PTX-860 [3]: 0; peptide hits BMS-PTX-(29)147 [3]: 31; peptide hits BMS-PTX-(39)147 [3]: 1; Toxicity in HHA Cells [1, 6]: Non-Toxic; Toxicity in HHA Cells [1, 5]: Non-Toxic

**Q.** For CCc1ccc(CCOc2ccc(CC3SC(=O)NC3=O)cc2)nc1 (stereo not shown) [Pioglitazone], which “Toxicity in HHA Cells” value [1, 5] is on record?
**A.** Non-Toxic

**Q.** For Cc1c(C)c2c(c(C)c1O)CCC(C)(COc1ccc(CC3SC(=O)NC3=O)cc1)O2 (stereo not shown) [Troglitazone], which “change in levels of BMS-PTX-265” value [2] is on record?
**A.** statistically significant (p<0.05) increase

**Q.** What about the “peptide hits BMS-PTX-062” value [3] of the same compound?
**A.** 4

**Q.** What about the “peptide hits BMS-PTX-120” value [3] of the same compound?
**A.** 12

**Q.** And the “peptide hits BMS-PTX-225” value [3]?
**A.** 11

**Q.** What about the “peptide hits BMS-PTX-254” value [3] of the same compound?
**A.** 7

**Q.** What about the “peptide hits BMS-PTX-260” value [3] of the same compound?
**A.** 4

**Q.** What about the “peptide hits BMS-PTX-265” value [3] of the same compound?
**A.** 66

**Q.** And the “peptide hits BMS-PTX-447” value [3]?
**A.** 33

**Q.** And the “peptide hits BMS-PTX-459” value [3]?
**A.** 14

**Q.** And the “peptide hits BMS-PTX-607” value [3]?
**A.** 7

**Q.** What about the “peptide hits BMS-PTX-749” value [3] of the same compound?
**A.** 60

**Q.** And the “peptide hits BMS-PTX-808” value [3]?
**A.** 10

**Q.** And the “peptide hits BMS-PTX-837” value [3]?
**A.** 17

**Q.** And the “peptide hits BMS-PTX-860” value [3]?
**A.** 4

**Q.** And the “peptide hits BMS-PTX-(29)147” value [3]?
**A.** 67

**Q.** And the “peptide hits BMS-PTX-(39)147” value [3]?
**A.** 19

**Q.** And the IC50 [4]?
**A.** 32.7 µM

**Q.** What about the “Toxicity in HHA Cells” value [1, 6] of the same compound?
**A.** Toxic

**Q.** And the “Toxicity in HHA Cells” value [1, 5]?
**A.** Toxic

**Q.** For O=C(c1ccc(OCCN2CCCCC2)cc1)c1c(-c2ccc(O)cc2)sc2cc(O)ccc12 [Raloxifene], which “Toxicity in HHA Cells” value [1, 5] is on record?
**A.** Toxic

**Q.** For C1CCC(C(CC2CCCCN2)C2CCCCC2)CC1 (stereo not shown) [Perhexilene], which “Toxicity in HHA Cells” value [1, 5] is on record?
**A.** Toxic

**Q.** Which “Toxicity in HHA Cells” value [1, 5] does the source give for C#C[C@]1(O)CC[C@H]2[C@@H]3CCc4cc(O)ccc4[C@H]3CC[C@@]21C [Ethinyl Estradiol] here?
**A.** Non-Toxic

**Q.** What does the source list for CC1(COc2ccc(CC3SC(=O)NC3=O)cc2)CCCCC1 (stereo not shown) [Ciglitazone]?
**A.** change in levels of BMS-PTX-265 [2]: statistically significant (p<0.05) increase; peptide hits BMS-PTX-062 [3]: 27; peptide hits BMS-PTX-120 [3]: 44; peptide hits BMS-PTX-225 [3]: 25; peptide hits BMS-PTX-254 [3]: 28; peptide hits BMS-PTX-260 [3]: 24; peptide hits BMS-PTX-265 [3]: 93; peptide hits BMS-PTX-447 [3]: 82; peptide hits BMS-PTX-459 [3]: 31; peptide hits BMS-PTX-607 [3]: 6; peptide hits BMS-PTX-749 [3]: 142; peptide hits BMS-PTX-808 [3]: 14; peptide hits BMS-PTX-837 [3]: 25; peptide hits BMS-PTX-860 [3]: 9; peptide hits BMS-PTX-(29)147 [3]: 239; peptide hits BMS-PTX-(39)147 [3]: 36; IC50 [4]: 38 µM; Toxicity in HHA Cells [1, 6]: Toxic; Toxicity in HHA Cells [1, 5]: Toxic

**Q.** Which “Toxicity in HHA Cells” value [1, 5] does the source give for O=C(O)Cc1ccccc1Nc1c(Cl)cccc1Cl [Diclofenac] here?
**A.** Non-Toxic

**Q.** With CC(C)Cc1ccc(C(C)C(=O)O)cc1 (stereo not shown) [Ibuprofen] as the compound, how does the “Toxicity in HHA Cells” value [1, 5] read?
**A.** Non-Toxic

**Q.** Which “Toxicity in HHA Cells” value [1, 5] does the source give for CN1CCN(CCCN2c3ccccc3Sc3ccc(C(F)(F)F)cc32)CC1 [Trifluoperazine] here?
**A.** Toxic

**Q.** With CCO[C@@H](Cc1ccc(OCCN2c3ccccc3Oc3ccccc32)cc1)C(=O)O [Ragaglitazar] as the compound, how does the “Toxicity in HHA Cells” value [1, 5] read?
**A.** Non-Toxic

**Q.** With CC(C)c1nc(CN(C)C(=O)N[C@H](C(=O)N[C@@H](Cc2ccccc2)C[C@H](O)[C@H](Cc2ccccc2)NC(=O)OCc2cncs2)C(C)C)cs1 [Ritonavir] as the compound, how does the “Toxicity in HHA Cells” value [1, 6] read?
**A.** Toxic

**Q.** And the “Toxicity in HHA Cells” value [1, 5]?
**A.** Toxic
